In this assay the target is T1, Caspase-1 (Homo sapiens, UniProt P29466).
T1 sequence (P29466 whole entry): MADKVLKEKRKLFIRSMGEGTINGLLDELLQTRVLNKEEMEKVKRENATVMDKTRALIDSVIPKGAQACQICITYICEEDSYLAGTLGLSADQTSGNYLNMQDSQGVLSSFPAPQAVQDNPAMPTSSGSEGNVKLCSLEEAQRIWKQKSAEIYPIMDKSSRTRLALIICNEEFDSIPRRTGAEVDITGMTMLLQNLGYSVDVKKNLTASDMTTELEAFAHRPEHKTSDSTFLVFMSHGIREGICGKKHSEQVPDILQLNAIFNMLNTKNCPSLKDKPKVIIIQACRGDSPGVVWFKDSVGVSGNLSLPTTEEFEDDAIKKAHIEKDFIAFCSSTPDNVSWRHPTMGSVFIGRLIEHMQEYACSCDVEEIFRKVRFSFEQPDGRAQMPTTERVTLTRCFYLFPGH
The experiment in a line: Inhibition of IL-1 beta converting enzyme (ICE) in human blood monocytes. The assay is classed as cell-based.

By Ki is commonly meant the dissociation constant of the complex between target and ligand, obtained from inhibition or displacement. As to `O=C(O)C[C@H](NC(=O)OCc1ccccc1)C(=O)COCCCc1ccccc1`, the affinity, expressed as Ki, was 24 µM.
In the case of `C=CCOC(=O)N[C@@H](CC(=O)O)C(=O)CCCCc1ccccc1`, the Ki is > 100 µM.
As for `C=CCOC(=O)N[C@@H](CC(=O)O)C(=O)CNCc1ccccc1`, the figure is > 100 µM; as for `C=CCOC(=O)N[C@@H](CC(=O)O)C(=O)COC(=O)CCc1ccccc1`, 20 µM; as for `C=CCOC(=O)N[C@@H](CC(=O)O)C(=O)CNC(c1ccccc1)c1ccccc1`, > 100 µM.
As for `C=CCOC(=O)N[C@@H](CC(=O)O)C(=O)COC(=O)CCC1CCCCC1`, the figure is 3.5 µM; as for `C=CCOC(=O)N[C@@H](CC(=O)O)C(=O)COC(=O)NCc1ccccc1`, 74 µM.
`C=CCOC(=O)N[C@@H](CC(=O)O)C(=O)COC(=O)/C=C/c1ccccc1` yielded a Ki of 90 µM.
As to `C=CCOC(=O)N[C@@H](CC(=O)O)C(=O)CN(C)CCc1ccccc1`, the Ki is > 100 µM.
Under `C=CCOC(=O)N[C@@H](CC(=O)O)C(=O)CNC(Cc1ccccc1)c1ccccc1` (stereo partly specified) stands 70 µM.
For the molecule `C=CCOC(=O)N[C@@H](CC(=O)O)C(=O)CNCCCc1ccccc1`, the Ki turned out to be 67 µM. The Ki values of the last two molecules are within 1.5-fold of each other.
`CC(=O)N[C@@H](Cc1ccc(O)cc1)C(=O)N[C@H](C(=O)N[C@@H](C)C(=O)N[C@@H](CC(=O)O)C(=O)CCCCc1ccccc1)C(C)C`: the Ki is 42 µM.
The molecule `C=CCOC(=O)N[C@@H](CC(=O)O)C(=O)CN(CCc1ccccc1)Cc1ccccc1` returned a Ki of 68 µM.
As for `C=CCOC(=O)N[C@@H](CC(=O)O)C(=O)CNCCc1ccccc1`, the figure is 4.4 µM; as for `C=CCOC(=O)N[C@@H](CC(=O)O)C(=O)CSCCCc1ccccc1`, 27 µM.
Regarding `C=CCOC(=O)N[C@@H](CC(=O)O)C(=O)COC(=O)CCOc1ccccc1`, the Ki amounted to 23 µM. The Ki values of the last two molecules are within 1.5-fold of each other.

Values taken from ChEMBL document CHEMBL1152032, “Inhibition of interleukin-1 converting enzyme by N-Acyl-aspartic acid ketones” (Bioorg Med Chem Lett, 1995).
